# Laboratory results from patent US6593275B1, “Use of prolines for improving growth and other properties of plants and algae” (The Regents of the University of California, priority 2000, dated 2003).
# Several values for one entry are separate records, joined by “and”; a condition that tells them apart may be missing. Equal values may be shown once. Marks after values point to notes of the source that are not given here.
# Key:
# [1] = system: oat plants (commercial cultivar Lodi); assay: Daily root treatment of oats with 2-hydroxy-5-oxoproline; type: in vivo
# Method: (§1) Having generally described the invention, the following EXAMPLES provide additional details of the effects of the metabolite, 2-hydroxy-5-oxoproline and other prolines on plant properties. In the EXAMPLES, the concentration of 2-hydroxy-5-oxoproline in plant leaves was determined by extracting the 2-hydroxy-5-oxoproline into acidified water from a known weight of fresh leaf tissue. The sampled leaves were fully extended and photosynthetically active. The amount of 2-hydroxy-5-oxoproline was measured using a high-performance liquid chromatograph fitted with an optical detector (210 nm) and a column packed with a sulfonated polystyrene di-vinyl benzene polymer suitable for ion-exclusion chromatography of Kreb cycle intermediates. The metabolite was eluted with 0.01N H2SO4 in water. The chromatograph peak corresponding to 2-hydroxy-5-oxoproline was identified by the known column retention time of 2-hydroxy-5-oxoproline. A standard curve was prepared using chemically synthesized 2-hydroxy-5-oxoproline (structure confirmed using 13-C nuclear magnetic resonance) and varying the amount of this standard injected into the system. The area integrated under the peak was correlated with the known amount of standard injected into the chromatograph. The amount of 2-hydroxy-5-oxoproline in leaf tissue samples could then be quantitatively determined from the area under the appropriate peak.
# Also in the EXAMPLES, plants were grown at 73° F. with 16 h length days and 8 h length nights. […]
# The treatment was commenced when the seedlings were 7 days old and continued for 56 days; the 2-hydroxy-5-oxoproline was supplied daily to their roots as 50 ml of between 0.5 to 50 μM solutions of 2-hydroxy-5-oxoproline in Hoagland's plant nutrient solution having a pH of 6.3. […] When the amount of dry weight was expressed as a function of fresh weight, the percent dry weight of the treated plants ranged from 8.1 to 8.4% when compared with 7.6% for untreated control plants. […]
# [2] = system: lettuce; assay: Weekly foliar treatment of lettuce with 2-hydroxy-5-oxoproline; type: in vivo
# Method: as §1
# (§2) Also in the EXAMPLES, plants were grown at 73° F. with 16 h length days and 8 h length nights. Fluorescent lights were supplemented with incandescent bulbs to generate intensities of 1760, 980 or 360 microeinsteins per meter squared per second as indicated in the EXAMPLES. Plants were grown in a standard potting mixture of peat moss, vermiculite and perlite, and nutrients were supplied by watering daily with the commonly used Hoagland's plant nutrient solution which contains an array of known plant nutrients and is considered to be appropriate to meet the nutrient needs of plants as they normally receive them from soil.
# The fresh weight, dry weight, percent dry weight, 2-hydroxy-5-oxoproline concentration in the leaves, and the CO2 fixation rates are all increased in the treated plants. The greater dry weight percent increases the value of these plants and that of algae as fuel because the increase provides a greater amount of combustible material per gram of fresh weight (that is, a greater amount of carbon was fixed by the plant), and because an increase in dry weight percent reduces the water content in the fuel which is an energy cost when the fuel is combusted. It also increases the value of these plants as sources of biomass suitable for conversion to other products such as chemicals, liquid fuels, or hydrogen, to name a few examples. Treatments were applied weekly to the foliar parts of the plants using an air brush until approximately 20% drip. The aqueous treatment solution contained 2-hydroxy-5-oxoproline (10 mg/liter) in 0.07% sodium laurel sulfate, and 1.2% glycerol at a pH of 6.3. The plants were harvested at 63 days of age after 7 treatments; the harvest was made 7 days after the last treatment. These plants were provided Hoagland's plant nutrient solution to their roots and grown under light intensity of […] microeinsteins.
# At harvest (63 days of age) none of the 12 control plants had emerged flowering structures, whereas 6 of the 12 treated plants had well-developed flowering structures.
# [3] = system: alfalfa commercial cultivar Saranac; assay: Daily root treatment of alfalfa: growth, nodulation and flowering; type: in vivo
# Method: as §2
# Growth and nodulation were improved by the treatment. The alfalfa commercial cultivar Saranac, was grown as described hereinabove using 1760 microeinsteins per meter squared per second as the light intensity, and watered daily with quarter-strength Hoagland's plant nutrient solution that had been modified to replace the nitrogen (nitrate) with chloride in the solution. Nodulating alfalfa seedlings were treated beginning at about 4 days of age, with the same quantity of 2-hydroxy-5-oxoproline as described in EXAMPLE 1 for plants receiving the 2-hydroxy-5-oxoproline through their roots.
# The time to flowering or emergence of seed structures of treated daily and untreated plants was tracked in alfalfa and oats.
# [4] = system: Switchgrass (commercial cultivar Alamo); assay: Daily root treatment of switchgrass; type: in vivo
# Method: as §2
# Average fresh weight of the foliar part of the plants was 115% of that for the control plants.
# [5] = system: wildtype oats (commercial cultivar Lodi); assay: Daily root treatment of oats; selection of responders by CO2 fixation rate and tillers; type: in vivo
# Method: Oats were treated with 2-hydroxy-5-oxoproline through their roots as described in EXAMPLE 1. Individual plants that responded to the increased level of 2-hydroxy-5-oxoproline were identified by measuring the rate of CO2 fixation using a CO2 fixation meter at the maximum light intensity for photosynthetic carbon dioxide fixation of 2000 microeinsteins per meter squared per second. The rates were measured in the leaves of treated plants on two successive days and the plants were allowed to mature and produce seed.
# [6] = system: oat plants; assay: Root treatment of oats; effects of increasing leaf/root GS ratio on growth and leaf 2-hydroxy-5-oxoproline; type: in vivo; conditions: for Whole Plant Fresh Weight (FWT): oats, compound delivered to the roots, controls 14.95; for 2-Hydroxy-5-oxoproline in Leaf: treated oats, controls 4.9
# Method: as §1, §2
# (§3) TABLE 5 and FIG. 3 hereof show the results of increasing the ratio of leaf/root GS activity on plant growth and on the concentration of 2-hydroxy-5-oxoproline in the leaves of oat plants treated with a compound (tabtoxinine-β-lactam) that binds to glutamine synthetase and impairs the normal destruction of this enzyme, thereby causing the leaf GS activity to increase while the root GS activity decreases. (For methodology, see, e.g., T. Knight, D. Bush, and P. Langston-Unkefer, Plant Physiol. 88, 333 (1988)). The compound (Tabtoxinine-β-lactam) was delivered to the roots. […] The level of 2-hydroxy-5-oxoproline was also observed to increase in the leaves of these plants as a consequence of the increased leaf/root GS activity ratio.
# [7] = system: glutamine synthetase; assay: Glutamine synthetase activity in leaf and root of treated oats (transferase assay); type: in vivo; conditions: for GS Activity, Leaf: leaf of treated oats, controls 10.5; for GS Activity, Root: root of treated oats, controls 7.8; for Leaf/Root GS Activity Ratio: treated oats, controls 1.35
# Method: Glutamine synthetase activity was measured using the transferase assay as described in “Glutamine Synthetase (E. coli)” by B. Shapiro and E. Stadtman, Meth. Enzym. 17A, 910 (1970). The GS activity is expressed in micromoles per gram of fresh weight of tissue per minute.
# as §3
# [8] = system: Chlorella sorokinian; assay: Growth rate of algae with 2-hydroxy-5-oxoproline in growth medium; type: cell-based; conditions: treated algae, CO2 sole carbon source; untreated approximately 60 h
# Method: The growth rate of algae, Chlorella sorokinian (obtained from the American Type Culture Collection), was increased when 2-hydroxy-5-oxoproline was added to the growth medium. The mass accumulation growth curve for this single-cell photosynthetic organism is described as a sigmoidal function. […] This reflects substantially accelerated growth for the treated algae cultures when compared with untreated cultures. The growth medium for algae growth is described in Biotechnology & Bioengineering Vol. IV by Daboll et al., pages 281-297 (1962). Carbon dioxide was provided as the sole carbon source and was allowed to sparge into the cultures of both treated and untreated cultures. The light source supplied approximately 980 ft candles. Media pH was initially adjusted to 8.0 using either NaOH or HCl, and subsequently maintained at pH 7.0 by controlling the introduction of CO2.
# [9] = system: thrip; assay: Thrip infestation of alfalfa plants with elevated 2-hydroxy-5-oxoproline; type: in vivo; conditions: of 80 plants, one week after initial exposure; controls 15 of 80
# Source text: Thrip infestation of plants having increased 2-hydroxy-5-oxoproline concentration was compared with that of control plants having a normal level of 2-hydroxy-5-oxoproline in their leaves. Control (80 plants) and plants with elevated levels of 2-hydroxy-5-oxoproline (80 plants) were subjected to thrip infestation; these two sets of plants were randomly intermingled in the greenhouse to assure equal exposure to the pest. Of the set of control plants, 15 were infested with thrip while only 11 of the other set of plants were infested with thrip one week after initial exposure to the pests. The light intensity for growth was approximately 1760 microeinsteins per meter squared per second.
# [10] = system: Cantaloupe-Imperial; assay: Single foliar treatment of cantaloupe seedlings; type: in vivo; conditions: 16 days old, harvested 9 day after a single treatment, untreated 0.85
# Method: (§4) TABLE 7 and TABLE 8 show the results when commercial vegetables such as cantaloupe, and tomatoes, and a crop such as cotton were tested for the effects of the metabolite on their growth rates. These plants received one foliar application of 2-hydroxy-5-oxoproline as young seedlings. These plants grew more rapidly as determined by either fresh weight or leaf length. The cantaloupe and cotton seedlings were harvested and their fresh weight was determined.
# (§5) *Plants were 16 days old and were harvested 9 day after the treated plants had received a single treatment.
# [11] = system: Cotton-Pima; assay: Single foliar treatment of cotton seedlings; type: in vivo; conditions: 16 days old, harvested 9 day after a single treatment, untreated 1.27
# Method: as §4, §5
# [12] = system: Tomato-Halley 3155; assay: Multiple foliar treatment of tomato; type: in vivo; conditions: 24 days old, 5 weekly treatments, untreated 11.97
# Method: as §4
# ** Plants were 24 days old and treated plants had received 5 weekly treatments.
# [13] = system: oat plants; assay: Foliar treatment of oats with 5-oxoproline; type: in vivo; conditions: oats harvested 17 days after single foliar treatment, 40.5 mg per milliliter, 1% dimethylsulfoxide, pH 6.3
# Method: A solution containing 40.5 mg per milliliter of 2-pyrrolidone-5-carboxylic acid and 1% dimethylsulfoxide in water at a pH of 6.3 was applied, but other solutions of this compound were also found to be effective. These plants were grown under lights of 980 microeinsteins per meter squared per second and the treatment was applied to their foliar parts.
# [14] = lettuce, harvest at 63 days, control 100%
# [15] = alfalfa, daily root treatment (soil), controls 100
# [16] = individual treated oat plants, non-responders
compound,measurement,setting,value
O=C1CC[C@@](O)(C(=O)O)N1 [2-hydroxy-5-oxoproline],seed structures displayed earlier than untreated control plants,[1]; oats treated daily,3 to 5 days
same,2-Hydroxy-5-oxoproline Concentration in Leaf,"[1]; oats, daily root treatment, control 4.9",7.0 micromoles/gFWT
same,Whole Plant Fresh Weight (FWT),"[1]; oats, roots treated daily for 56 days with 50 ml of 0.5 to 50 μM solution, control 14.95",18.06 g
same,CO2 Fixation Rate,"[2]; 34 day-old lettuce plants, control 6.6",9.0 micromoles CO2 fixed/m^2/sec
same,CO2 Fixation Rate,"[2]; 57 day-old lettuce plants, control 6.9",9.6 micromoles CO2 fixed/m^2/sec
same,Whole Plant Fresh Weight (FWT),"[2]; lettuce, 7 weekly foliar treatments 10 mg/liter, harvest at 63 days, control 55.3",65.2 g
same,Whole Plant Dry Weight (DW),"[2]; lettuce, harvest at 63 days, control 4.00",6.35 g
same,"Whole Plant Dry Weight, percent of control",[2]; [14],159%
same,"Whole Plant Fresh Weight, percent of control",[2]; [14],118%
same,2-Hydroxy-5-oxoproline Concentration in Leaf,"[2]; lettuce, weekly foliar treatment, control 6.25",13.37 micromoles/gFWT
same,"2-Hydroxy-5-oxoproline Concentration in Leaf, percent of control","[2]; lettuce, control 100%",212%
same,number of plants with well-developed flowering structures,"[2]; of the 12 treated lettuce plants at harvest (63 days of age), none of 12 controls",6
same,flowered sooner than untreated plants,[3]; alfalfa treated daily,2 to 5 days
same,Nodule number/plant (%),[3]; [15],214%
same,Nodule weight/plant (%),[3]; [15],165%
same,Whole plant Fresh weight (%),[3]; [15],145%
same,"Average fresh weight of the foliar part, percent of control plants","[4]; switchgrass, daily root treatment",115%
same,"dry weight per unit of fresh weight, foliar parts","[4]; treated switchgrass, untreated 14.9%",16.5%
same,"dry weight per unit of fresh weight, roots","[4]; treated switchgrass, untreated 16.7%",12.05%
same,emergence of 3rd and 4th leaves (FIG. 4),"[4]; treated versus control switchgrass, as a function of time",consistently emerged leaves sooner than did the control plants
same,Number of Tillers in Mature Plant,"[5]; average of non-responders, average of untreated plants 13.7",14.0
same,CO2 fixation Rate as Differential CO2 Concentration,"[5]; average of non-responders, average of untreated plants 18.2",18.2 ppm
same,Number of Tillers in Mature Plant,"[5]; average of responders, average of untreated plants 13.7",17.0
same,CO2 fixation Rate as Differential CO2 Concentration,"[5]; average of responders, average of untreated plants 18.2",25.3 ppm
same,CO2 fixation Rate as Differential CO2 Concentration,[5]; [16],19.9 ppm and 19.6 ppm and 17.2 ppm and 16.1 ppm
same,Number of Tillers in Mature Plant,[5]; [16],14 (2×) and 13 and 15
same,Number of Tillers in Mature Plant,"[5]; individual treated oat plants, responders",21 (2×) and 19 and 12 and 15 and 17 (3×) and 13 and 18
same,CO2 fixation Rate as Differential CO2 Concentration,"[5]; individual treated oat plants, responders, light 2000 microeinsteins",25.2 ppm and 24.5 ppm and 24.2 ppm (2×) and 23.6 ppm and 23.2 ppm and 28.9 ppm and 28.0 ppm and 25.9 ppm and 25.3 ppm
same,Whole Plant Fresh Weight (FWT),[6],18.07 g
same,2-Hydroxy-5-oxoproline in Leaf,[6],7.04 micromoles/g FWT
same,"GS Activity, Leaf",[7],Leaf: 16.9 micromoles/g FWT/min
same,"GS Activity, Root",[7],Root: 6.4 micromoles/g FWT/min
same,Leaf/Root GS Activity Ratio,[7],2.64
same,time to reach the mid-log phase of growth,[8],approximately 40 h
same,number of plants infested with thrip,[9],11
same,"Foliar Fresh Weight, Treated plants",[10],1.55* g
same,"Foliar Fresh Weight, Treated plants",[11],1.85* g
same,"Foliar Fresh Weight, Treated plants",[12],19.08** g
"N[C@@H](CC[C@]1(O)CNC1=O)C(=O)O [Tabtoxinine-β-lactam, tabtoxinine-β-lactam, reference compound]",Whole Plant Fresh Weight (FWT),[6],24.6 g
same,2-Hydroxy-5-oxoproline in Leaf,[6],16.6 micromoles/g FWT
same,"GS Activity, Leaf",[7],Leaf: 25.9 micromoles/g FWT/min
same,"GS Activity, Root",[7],Root: 3.9 micromoles/g FWT/min
same,Leaf/Root GS Activity Ratio,[7],6.6
"O=C1CCC(C(=O)O)N1 (centres unmarked) [5-oxoproline, 2-pyrrolidone-5-carboxylic acid]","fresh foliar weight, percent of untreated control plants",[13],126%
